The values that follow come from article PMC8304783, “Antiadhesive Properties of Imidazolium Ionic Liquids Based on (−)-Menthol Against Candida spp” (International Journal of Molecular Sciences, 2021).

Holding throughout (type): cell-based
One test relates to C. albicans. Briefly: Detachment of adherent cells from polystyrene (crystal violet). The settings on record: C. albicans on polystyrene, 2 h treatment; over MIC, 2 × MIC and 4 × MIC. Here is the method: (§1) Thus, for the evaluation of ILs on fungal adhesion, higher concentrations were used, corresponding to 1, 2 and 4 times the MIC90 values (Figure 1).
(§2) Figure 1 Detachment of adherent Candida spp. cells after 2 h incubation on polystyrene surfaces by ionic liquids (ILs) (A) or amphotericin B (AMB) (B) (means ± SD; n = 3). Results are presented as percentage of adherent cells relative to untreated controls (100% adhesion). Statistical analysis of detachment at each concentration was performed towards corresponding control experiments (fungi untreated by ILs or AMB = 100% adhesion) (*, p < 0.05 and **, p < 0.01).
(§3) Post-adherence treatment with ILs was performed in a similar manner to that described previously by our team. Candida spp. suspensions were prepared by centrifuging YPD-grown cultures and resuspending fungal mass in PBS to an OD600 = 0.6. Sterile 96-well plates were inoculated with the prepared suspensions and incubated for 2 h at 37 °C to induce fungal adhesion. Afterwards, adherent cells were washed with PBS to remove planktonic cells and treated with ILs (concentrations equivalent to 1, 2 or 4 × MIC90 for each fungi) for 2 h at 37 °C. Then, each well was washed with PBS and adherent cells were fixed with 0.1% CV solution for 5 min, and washed with PBS. Cells were then treated with a solution of isopropanol 0.04 N HCL with 0.1% SDS to permeabilize adherent cells and release the CV dye. The absorbance of CV was measured at 590 nm (ASYS UVM 340 Biogenet). The percentage of cells that were removed was determined in comparison to adherent cells treated with PBS only (designated 100% adhesion).

The next test has as its system C. glabrata. Described as above. The settings on record: C. glabrata on polystyrene, 2 h treatment. The procedure: as §1, §2, §3
In another test the test system is C. parapsilosis. Described as above. To be noted: C. parapsilosis on polystyrene, 2 h treatment, 2 × MIC and 4 × MIC. The procedure: as §1, §2, §3
A further test concerns C. krusei. The test is described as above. To be noted: C. krusei on polystyrene, 2 h treatment; over MIC, 2 × MIC and 4 × MIC. Here is the method: as §1, §2, §3
The subject of another test is C. parapsilosis CBS10947. Description: Minimal inhibitory and fungicidal concentrations (broth microdilution, CLSI M27-A3 modified). To be noted: Lodderomyces parapsilosis, 28 °C; for MFC: 120 h, replated on YPD agar, 5 days, read-out: Minimal fungicidal concentration (MFC); for MIC90: ≥90% growth inhibition, 48 h, YPD, read-out: Minimal inhibitory concentration (MIC90). The procedure:
(§4) Experiments were performed according to the Clinical and Laboratory Standards Institute (2008), 3rd ed. M27-A3 [51], with modifications described previously. Briefly, MICs were determined by serially diluting ILs in YPD medium in sterile 96-well plates (Sarstedt) and inoculating with fungal suspensions (final OD600 per well = 0.01). After incubation (48 h; 28 °C), the OD600 was measured (ASYS UVM 340 Biogenet). […] Each well was then replated on YPD agar and incubated for 5 days at 28 °C.
In general terms: Dilution methods test growth across graded concentrations, often in twofold steps.

Another test deals with C. albicans SC5314. Described as above. The settings on record: Candida albicans, 28 °C; for MFC: 120 h, replated on YPD agar, 5 days, read-out: Minimal fungicidal concentration (MFC); for MIC90: ≥90% growth inhibition, 48 h, YPD, read-out: Minimal inhibitory concentration (MIC90). The procedure:
as §4

The subject of the next test is C. krusei ATCC6258. Described as above. To be noted: Pichia kudriavzevii, 28 °C; for MFC: 120 h, replated on YPD agar, 5 days, read-out: Minimal fungicidal concentration (MFC); for MIC90: ≥90% growth inhibition, 48 h, YPD, read-out: Minimal inhibitory concentration (MIC90). The procedure:
as §4

The test system of test [1] is C. albicans B4 and Gu5 isolates. Briefly: Biofilm of clinical isolates on acrylic dental crowns (crystal violet). To be noted: B4 and Gu5 (FLC-resistant); 72 h biofilm, then ILs 25 μM for 2 h. Here is the method: To assess the influence of ILs on biofilm formation by C. albicans strain SC5314 on dentures, the following materials were used: acrylic dental crowns, porcelain-fused-to-metal (PFMs) dental crowns and dental alloy substructures. All dentures were kind gifts from Prof. M. Łukaszewicz (Wrocław, Poland). Prior to the experiments, the dentures were sterilized by 1 h incubation in 70% pure ethanol (EtOH) solution, washed with sterile water to remove EtOH residues and dried under aseptic conditions. The experiments were performed by aseptically placing dentures in YPD, supplemented with FBS, and inoculating them with YPD-grown C. albicans suspension (0.01% Vol/Vol). After 72 h of incubation at 37 °C, the dentures were treated for 2 h with the addition of ILs (conc. = 25 µM), washed with PBS and fixed with 0.1% CV solution for 10 min, then washed with PBS to remove the stain residue. The dentures were then dried and photographed. Microscopic preparations were made of biofilm samples which were imaged using the Zeiss Axio Imager A2 microscope equipped with Zeiss Axiocam 503 mono microscope camera.
Figure S1. Detachment of adherent C. albicans clinical isolates after 2 h incubation on polystyrene surfaces by ionic liquids (ILs) (means ± SD; n = 3). Results are presented as percentage of adherent cells relative to untreated controls (100% adhesion). Statistical analysis of detachment at each concentration was performed towards corresponding control experiments (isolates untreated by ILs=100% adhesion) (*, p < 0.05; **, p < 0.01 […]
We selected C. albicans B4 and Gu5 isolates for evaluating the ability of ILs to eradicate biofilm formation on acrylic dental crowns (Figure S2). Both the strains were chosen due to their FLC‐resistance status. An IL concentration of 25 μM was selected for this investigation. In each condition, a C. albicans biofilm was formed after 72 h incubation, and the collected biomass was microscopically evaluated for the presence of hyphae, pseudohyphae and blastoconidia characteristic of C. albicans (Figure S2). […]

[2] abbreviates: highest concentration (4 × MIC).

Structures are written as SMILES.

Consider `CCCCCCCCCn1cc[n+](CO[C@@H]2C[C@H](C)CC[C@H]2C(C)C)c1` [1a, 1-[(1R,2S,5R)-(−)-menthoxymethyl]-3-nonylimidazolium chloride], for which the Reduction of adhesion entry in the test on C. albicans is given as “did not influence the adherent properties”; in the test on C. glabrata (setting [2]) it was ~ 40%; in the test with C. parapsilosis (over MIC), “did not influence the adherent properties”; in the test on C. krusei it was “approximately 10%”. The MFC in the test on C. parapsilosis CBS10947 was 50 µM; with C. albicans SC5314, 50 µM; in the test with C. krusei ATCC6258, 25 µM. In addition, the MIC90 in the test on C. parapsilosis CBS10947 worked out at 12.5 µM; in the test with C. albicans SC5314 it was 12.5 µM; in the test on C. krusei ATCC6258, 6.25 µM. Further, in test [1], the “Biofilm of clinical isolates on acrylic dental crowns (CV staining)” value (from here on “Biofilm of clinical isolates”) is listed as “residual CV staining”.

With `CCCCCCCCCCn1cc[n+](CO[C@@H]2C[C@H](C)CC[C@H]2C(C)C)c1` [1b, 3-decyl-1-[(1R,2S,5R)-(−)-menthoxymethyl]imidazolium chloride], the Reduction of adhesion with C. albicans is reported as 20–25%; in the test on C. glabrata (2 × MIC and 4 × MIC), ~ 20%; with C. parapsilosis, 20–25%; in the test with C. krusei it was “did not significantly reduce”. The MFC in the test on C. parapsilosis CBS10947 is 25 µM; with C. albicans SC5314, 50 µM; with C. krusei ATCC6258, 25 µM. For the same molecule, the MIC90 in the test with C. parapsilosis CBS10947, with C. albicans SC5314 and with C. krusei ATCC6258 was 25 µM throughout. In test [1], the “Biofilm of clinical isolates” value is “residual CV staining”.

As for `CCCCCCCCCOCn1cc[n+](CO[C@@H]2C[C@H](C)CC[C@H]2C(C)C)c1` [2a, 1-(1R,2S,5R)-(−)-menthoxymethyl-3-nonyloxymethylimidazolium chloride], the Reduction of adhesion in the test with C. albicans is on record as 20–30%; in the test on C. glabrata (setting [2]) it was “approximately 45%”; in the test with C. parapsilosis (over MIC), 30–40%; in the test on C. krusei, 10–20%. Further, the figures for the MFC with C. parapsilosis CBS10947, in the test with C. albicans SC5314 and in the test on C. krusei ATCC6258 were 25 µM, 25 µM and 12.5 µM, respectively. The MIC90 with C. parapsilosis CBS10947 was 12.5 µM; with C. albicans SC5314, 12.5 µM; in the test on C. krusei ATCC6258, 6.25 µM. Moreover, the “Biofilm of clinical isolates” value in test [1] is “prote ct ed”.
